# Measured values published in patent publication US20160160224A1, “CRYPTOSPORIDIUM TRANSFECTION METHODS AND TRANSFECTED CRYPTOSPORIDIUM CELLS” (UNIVERSITY OF GEORGIA RESEARCH FOUNDATION, INC., priority 2013, published 2016).
# System: C. parvum
# Experiment: Nluc luciferase assay of transfected C. parvum cultured in HCT-8 cells in the presence of drug
# Format: cell-based, Cryptosporidium parvum
# Conditions: electroporated (Nluc-transfected) C. parvum grown in paramomycin on HCT-8 host cells; FIG. 3D
# From the text: Next, we performed transfections and then cultured the transfected parasites in the presence of paramomycin, a drug that reduces growth of C. parvum but not the mammalian host cell. […] (FIG. 3D). We also tested an Nluc plasmid that lacks the Cryptosporidium promoter but carries Toxoplasma flanking sequences instead. […] Lastly, we tested whether parasite vectors can transduce host cells by deliberately delivering plasmid DNA into the HCT-8 host cell cytoplasm by lipofection. […] Collectively these measurements confirm that Apicomplexa and mammals have divergent primary sequence elements that drive transcription and subsequent RNA processing. Cryptosporidium transfection therefore depends on the introduction of a parasite species specific vector into viable parasites. Moreover, passive DNA delivery into the host is not relevant for activity and host cells are not transfected even when DNA is deliberately introduced into the host. […]
# For in vitro experiments, cells were scraped from T-25 flasks or 24-well plates and collected after 48 hours of incubation. […] After five minutes of incubation at room temperature, the cell lysate was added to white 96 well plates and luminescence was measured on a luminometer (BioTek Instruments, Inc., Winooski, Vt.). The read out was quantified in terms of relative luminescence units (RLU).
structure (smiles),measurement,value
"NC[C@@H]1O[C@H](O[C@H]2[C@@H](O)[C@H](O[C@@H]3[C@@H](O)[C@H](N)C[C@H](N)[C@H]3O[C@H]3O[C@H](CO)[C@@H](O)[C@H](O)[C@H]3N)O[C@@H]2CO)[C@H](N)[C@@H](O)[C@@H]1O [Paramomycin, paramomycin]",Nluc expression (luciferase activity),reduction of Nluc expression
